The source of these data is patent publication US20250270513A1, “METHOD FOR PRODUCING CULTURED TISSUE, AND PREPARATION FOR EXTERNAL APPLICATION” (National University Corporation Ehime University, priority 2019, published 2025).

The subject of assay [1] is human normal skin keratinocytes on collagen gel containing normal human skin fibroblasts (NHDF). Nature of the assay: Three-dimensional cultured skin on a sugar-containing dermal cell structure (Test Example 1). The class given is cell-based. As to the method:
Subsequently, about 1 mL of the gel obtained was poured into a transwell-collagen coated insert (catalog number: 3492, manufactured by Costar; pore size: 3.0 μm, surface area: 4.67 cm^2), which is a cell culture insert, and allowed to stand in an incubator for 5 minutes or more. 5 mL of DMEM containing 10 v/v % FCS and 1 v/v % ABAM (Antibiotics-Antimycotic solution, 100×, manufactured by ThermoFisher Scientific Inc.) in which normal human skin fibroblasts (NHDF, manufactured by Cambrex Corporation) were suspended at a cell density of 5×10^5 cells/mL was added to 29 mL of the gel solution I. About 3.5 mL of a gel solution containing the cells was added to the cell culture insert, and the mixture was allowed to stand in a 37° C. incubator for 30 minutes to gel.
• (2) Next, the collagen gel (layered dermal cell structure) containing NHDF was pre-cultured for 5 days using a DMEM medium containing 50 μg/ml ascorbic acid, 10 v/v % FCS, and 1 v/v % ABAM. Next, human normal skin keratinocytes suspended in MCDB medium were seeded on the collagen gel surface so as to be 1.28×10^5 cells/cm^2, and a medium obtained by mixing equal amounts of MCDB Type-II medium (Growth Medium 2 in JP-B2-3066624) and EGM was added to an external liquid of the cell culture insert and the inside of the insert, followed by culturing at 37° C. for 2 days.
• (3) The medium was replaced with a cornification medium (CM medium), and the cell culture insert was placed such that a porous membrane of the cell culture insert was located at a gas-liquid interface of the cornification medium. In this state, the cells were subjected to gas-liquid interface culture at 37° C. for 7 to 14 days to induce differentiation, thereby obtaining three-dimensional cultured skin. The medium was replaced every two days from the start of the culture.

Assay [2] concerns AKT (Ser473 phosphorylated). The assay can be described thus: Western blotting of phosphorylated AKT in fibroblasts (Test Example 3-1). The assay is classed as cell-based, human. As to conditions: 0, 10, 100 mg/mL trehalose in medium, 24 hours. As to the method:
(§1) The cells were further DNA-stained with PI and subjected to FCM, and the proportion of each cell cycle was examined.
(§2) (3) Furthermore, proteins were extracted from the fibroblasts obtained in (1) using RIPA buffer (1% protein inhibitor (manufactured by SIGMA)+Phosphatase Inhibitor cocktail (manufactured by SIGMA)). Then, 10 μg of protein per sample was separated by SDS-PAGE by a conventional method, transferred to a PVDF membrane, and then subjected to Western blotting. Phosphorylated ERK1/2 and phosphorylated AKT were detected by ECL Prime Western Blotting Detection Reagent (manufactured by GE Healthcare), using Phospho-p44/p42 MAPK (Erk1/2) (Thr202/Tyr204) (D13.14.4E) XP Rabbit mAb (#4300, Cell Signaling) and Phospho-Akt (Ser473) antibody (#9271, manufactured by Cell Signaling Technology) as a primary antibody, and an anti-rabbit IgG antibody and an anti-mouse IgG antibody manufactured by PROMEGA were used as secondary antibodies, and visualized by Image Quant LAS4010 (manufactured by GE Healthcare).
For orientation: In western blotting, separated proteins are transferred to a membrane and probed.

The test system of a further assay is β-actin. The assay can be described thus: Western blotting of β-actin in fibroblasts (Test Example 3-1). The assay is classed as cell-based, human. As to conditions: 0, 10, 100 mg/mL trehalose in medium, 24 hours. As to the method:
as §1, §2

A further assay concerns FGF2 mRNA. Nature of the assay: qPCR of FGF2 gene in monolayer fibroblasts (Test Example 3-2). The class given is cell-based, human. As to conditions: for FGF2 expression level compared to control without trehalose (vehicle): after 3 hours of culture. As to the method:
• (1) NHDF was seeded on a cell culture dish containing 1% FCS and 1% ABAM-containing DMEM medium containing 0, 30, and 100 mg/mL trehalose so as to be 5.5×10^4 cells/cm^2, and cultured for 3, 24, or 48 hours. • (2) Cells under each condition were collected, and mRNA was extracted using RNeasy Mini Kit (manufactured by QIAGEN). CDNA was prepared from mRNA using iScript cDNA Synthesis kit (manufactured by B10-RAD Laboratories). The method was performed according to each manual. Next, quantitative PCR (qPCR) of FGF2 gene was performed. For the reaction, Fast Start Universal Probe Master (Rox) (Roche) and StepOnePlue Real time PCR system were used. As a primer set, TaqMan probes for FGF2 (ThermoFisher Scientific) described in Table 5 were used. GAPDH was used as a reference gene. The number of samples used in each condition was 3.
(In general: Quantitative PCR measures a nucleic acid by following its amplification.)

Assay [3] deals with human normal skin keratinocytes on collagen gel containing pretreated NHDF. Nature of the assay: Three-dimensional cultured skin using fibroblasts pretreated with trehalose (Test Example 4). The class given is cell-based. How it is done:
• (1) NHDF was seeded on a cell culture dish containing 10% FCS and 1% ABAM-containing DMEM medium at a cell density of 4.0×10^4 cells/cm^2. After 24 hours from seeding, at a cell density of 4.5×10^4 cells/cm^2, the medium was replaced with 1% FCS and 1% ABAM-containing DMEM medium containing 0, 30, or 100 mg/mL trehalose, and the cells were incubated at 37° C. for 24 hours. Then, a collagen gel containing 5.0×10^5 cells/ml of the obtained NHDF was prepared under the same conditions as in Test Example 1 except that trehalose was not added. • (2) According to the method of Test Example 1, the obtained NHDF-containing collagen gel was pre-cultured for 5 days, and then human normal skin keratinocytes were seeded and cultured for 2 days at 37° C. • (3) Further, according to the method of Test Example 1, gas-liquid interface culture was performed at 37° C. for 7 days using CM medium.

The test system of assay [4] is wound with a diameter of 6 mm on the back of C57BL/6 mice. Nature of the assay: In vivo test of effect of trehalose on skin wound (Test Example 6). On the set-up: species or system mouse. How it is done: In order to verify an effect of trehalose on skin wounds, in vivo test using mice was performed. The method is shown below. • (1) 15 week old C57BL/6 mice were anesthetized, the back was extensively depilated, then the skin of the back was pinched and overlaid, and a wound with a diameter of 6 mm was prepared with a biopsy trepan. • (2) Wound mice were divided into 2 groups of 6 mice each, and 100 mg of an agent composed only of Vanicream (Pharmaceutical Specialties, INC) as a base was applied to a control group, and 100 mg of an agent composed of 10% by mass trehalose and Vanicream as a base was applied to a trehalose treatment group once a day. • (3) Images of each wound up to 9 days after wound formation and the area of each wound were recorded, respectively.

Where [5] appears, read: culture to which trehalose was added.
Where [6] appears, read: 100 mg/mL trehalose, after 24 hours.
Where [7] appears, read: 100 mg/mL trehalose, after 48 hours.

With `OC[C@H]1O[C@H](O[C@H]2O[C@H](CO)[C@@H](O)[C@H](O)[C@H]2O)[C@H](O)[C@@H](O)[C@@H]1O` [trehalose, α, α-trehalose], the “area of the epithelial tissue layer formed” value in assay [1] (10 mg/mL trehalose added to collagen gel containing fibroblasts, compared to no trehalose) is “slightly enlarged”; in assay [1] (100 mg/mL trehalose added to collagen gel containing fibroblasts) it was “extended to the outer edge of the insert and further expanded to protrude to the outside of the insert”. The “contraction of the collagen gel” value in assay [1] (setting [5]) and in assay [3] (fibroblast cells pre-cultured with trehalose) was “not observed” each time. Also, the “wrinkles and rumples of the sheet-like epithelial tissue layer” value in assay [1] (setting [5]) was “without wrinkles and rumples”. In assay [2], the “phosphorylation of AKT” value is listed as “promoted as the concentration of trehalose in the medium increases”. Moreover, in the assay with β-actin, the “synthesis amount of β-actin” value is reported as “increased depending on the amount of trehalose”. In addition, the “FGF2 expression level compared to control without trehalose (vehicle)” value with FGF2 mRNA (30 mg/mL trehalose) and in the assay on FGF2 mRNA (100 mg/mL trehalose) was “increase” in each case. In addition, the “expression level of FGF2 mRNA” value in the assay on FGF2 mRNA (30 mg/mL trehalose, after 48 hours) is on record as “slightly increased”. Moreover, the “FGF2 mRNA expression level compared to that at the start of the culture” value in the assay on FGF2 mRNA (setting [6]) and in the assay on FGF2 mRNA (setting [7]) was “still also increased” in each case. For the same compound, the “FGF2 mRNA expression level compared to the control” value with FGF2 mRNA (setting [6]) and in the assay on FGF2 mRNA (setting [7]) was “significantly increased” throughout. In addition, the “enlargement of three-dimensional cultured skin in diameter compared to pre-culturing with medium containing no trehalose” value in assay [3] (fibroblasts pre-cultured with 30 mg/mL trehalose for 24 hours before collagen gel preparation) is “about 1.4 times”. In addition, the “area of three-dimensional cultured skin” value in assay [3] (fibroblasts pre-cultured with 100 mg/mL trehalose for 24 hours before collagen gel preparation) is given as “enlarged to cover the entire cell culture insert”. The “recovery of wounds compared to control group” value in assay [4] (100 mg of agent of 10% by mass trehalose and Vanicream, applied once a day) was “significantly faster”. Moreover, the “day on which wound epithelialized” value in assay [4] (10% by mass trehalose in Vanicream, once a day) turned out to be 4 days. Besides, the wound area result in assay [4] (10% by mass trehalose in Vanicream, once a day, after 1 day) is recorded as “remarkably reduced”. Moreover, the “difference between groups in wound area (two-way ANOVA, p<0.001)” value in assay [4] (each point of days 2 to 6, n=6 in each group) is recorded as “significant differences”.
